# PMC8121805, “Discovery of first-in-class inhibitors of ASH1L histone methyltransferase with anti-leukemic activity” (Nature Communications, 2021)
# Values joined by “and” are separate entries in the source; they are usually repeats but may differ in a detail not shown here. Equal entries are not always repeated. “Also recorded” adds a separate entry of the source.
# How the values were obtained:
# [1] = molecular target: GLP (Homo sapiens, UniProt Q9H9B1); test: HMT selectivity panel; settings: 50 µM compound
# GLP, sequence (Q9H9B1 whole entry): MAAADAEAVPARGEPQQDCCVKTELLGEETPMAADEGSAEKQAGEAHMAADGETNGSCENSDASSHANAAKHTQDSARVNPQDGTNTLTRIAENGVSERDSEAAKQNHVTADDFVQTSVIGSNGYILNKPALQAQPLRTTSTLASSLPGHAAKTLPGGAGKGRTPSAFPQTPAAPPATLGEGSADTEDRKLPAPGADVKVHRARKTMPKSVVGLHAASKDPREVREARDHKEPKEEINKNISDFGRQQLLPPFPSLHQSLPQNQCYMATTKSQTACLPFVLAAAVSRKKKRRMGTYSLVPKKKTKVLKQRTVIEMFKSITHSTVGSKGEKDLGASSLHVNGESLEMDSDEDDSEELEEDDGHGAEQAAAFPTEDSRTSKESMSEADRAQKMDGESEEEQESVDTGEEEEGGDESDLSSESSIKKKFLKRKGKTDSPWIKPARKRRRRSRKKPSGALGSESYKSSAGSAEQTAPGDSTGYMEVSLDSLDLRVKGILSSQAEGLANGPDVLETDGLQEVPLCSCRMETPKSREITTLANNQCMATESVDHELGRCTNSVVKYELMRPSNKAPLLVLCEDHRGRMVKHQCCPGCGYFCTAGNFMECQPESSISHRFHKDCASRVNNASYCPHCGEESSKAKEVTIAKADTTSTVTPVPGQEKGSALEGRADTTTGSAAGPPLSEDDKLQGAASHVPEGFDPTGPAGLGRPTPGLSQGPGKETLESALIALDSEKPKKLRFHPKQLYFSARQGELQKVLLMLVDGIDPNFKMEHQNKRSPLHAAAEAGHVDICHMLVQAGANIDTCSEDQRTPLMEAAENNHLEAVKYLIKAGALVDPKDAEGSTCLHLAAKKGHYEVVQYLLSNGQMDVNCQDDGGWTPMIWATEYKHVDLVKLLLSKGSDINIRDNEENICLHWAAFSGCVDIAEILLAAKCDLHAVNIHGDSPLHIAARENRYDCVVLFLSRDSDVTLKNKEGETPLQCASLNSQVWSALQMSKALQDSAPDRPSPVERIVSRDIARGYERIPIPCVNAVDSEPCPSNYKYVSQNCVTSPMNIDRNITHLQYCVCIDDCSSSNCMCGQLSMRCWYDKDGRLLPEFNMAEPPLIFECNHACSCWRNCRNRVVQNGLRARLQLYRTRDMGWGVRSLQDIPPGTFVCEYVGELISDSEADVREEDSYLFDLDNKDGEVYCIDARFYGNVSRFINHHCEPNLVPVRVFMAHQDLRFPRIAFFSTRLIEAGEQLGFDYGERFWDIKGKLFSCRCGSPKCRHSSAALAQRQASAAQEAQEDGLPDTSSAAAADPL
# Description: (§1) mM DTT and 0.01% Triton X-100 was used in experiments containing core histone.
# experiments containing nucleosome.
# G9a 5 core histone 0.05 mg/mL 1
# GLP 5 core histone 0.05 mg/mL 1
# [2] = tested on: luciferase-expressing MV4;11 cells in NSG mice; test: MV4;11 xenotransplantation bioimaging model (bioluminescence); format: in vivo, mouse; settings: for average radiance: individual mice, 30 mg/kg q.d. i.p.
# [3] = tested on: K562 cells; test: Annexin V apoptosis assay (flow cytometry); format: cell-based, human; settings: for K562 % Annexin V/PI+ cells: 7 days
# [4] = tested on: human CD34+ cells from cord blood; test: Colony-forming assay with normal hematopoietic progenitor cells; settings: 7 days
# Description: The experiment was performed twice. […] Mean ± SD, n = 3 biological replicates. […] Two independent experiments were performed in triplicates. Representative graphs are shown. *P < 0.05; **P < 0.01; ****P < 0.0001; NS not significant.
# [5] = tested on: panel of diverse set of 30 kinases; test: Profiling with kinases; settings: 25 µM, 1 h incubation
# Excerpt: This study was outsourced to the Contract Research Organization.
# [6] = molecular target: NSD3 (Homo sapiens, UniProt Q9BZ95); test: HMT selectivity panel; settings: NSD3, 50 µM compound
# NSD3, sequence (Q9BZ95 whole entry, species assumed): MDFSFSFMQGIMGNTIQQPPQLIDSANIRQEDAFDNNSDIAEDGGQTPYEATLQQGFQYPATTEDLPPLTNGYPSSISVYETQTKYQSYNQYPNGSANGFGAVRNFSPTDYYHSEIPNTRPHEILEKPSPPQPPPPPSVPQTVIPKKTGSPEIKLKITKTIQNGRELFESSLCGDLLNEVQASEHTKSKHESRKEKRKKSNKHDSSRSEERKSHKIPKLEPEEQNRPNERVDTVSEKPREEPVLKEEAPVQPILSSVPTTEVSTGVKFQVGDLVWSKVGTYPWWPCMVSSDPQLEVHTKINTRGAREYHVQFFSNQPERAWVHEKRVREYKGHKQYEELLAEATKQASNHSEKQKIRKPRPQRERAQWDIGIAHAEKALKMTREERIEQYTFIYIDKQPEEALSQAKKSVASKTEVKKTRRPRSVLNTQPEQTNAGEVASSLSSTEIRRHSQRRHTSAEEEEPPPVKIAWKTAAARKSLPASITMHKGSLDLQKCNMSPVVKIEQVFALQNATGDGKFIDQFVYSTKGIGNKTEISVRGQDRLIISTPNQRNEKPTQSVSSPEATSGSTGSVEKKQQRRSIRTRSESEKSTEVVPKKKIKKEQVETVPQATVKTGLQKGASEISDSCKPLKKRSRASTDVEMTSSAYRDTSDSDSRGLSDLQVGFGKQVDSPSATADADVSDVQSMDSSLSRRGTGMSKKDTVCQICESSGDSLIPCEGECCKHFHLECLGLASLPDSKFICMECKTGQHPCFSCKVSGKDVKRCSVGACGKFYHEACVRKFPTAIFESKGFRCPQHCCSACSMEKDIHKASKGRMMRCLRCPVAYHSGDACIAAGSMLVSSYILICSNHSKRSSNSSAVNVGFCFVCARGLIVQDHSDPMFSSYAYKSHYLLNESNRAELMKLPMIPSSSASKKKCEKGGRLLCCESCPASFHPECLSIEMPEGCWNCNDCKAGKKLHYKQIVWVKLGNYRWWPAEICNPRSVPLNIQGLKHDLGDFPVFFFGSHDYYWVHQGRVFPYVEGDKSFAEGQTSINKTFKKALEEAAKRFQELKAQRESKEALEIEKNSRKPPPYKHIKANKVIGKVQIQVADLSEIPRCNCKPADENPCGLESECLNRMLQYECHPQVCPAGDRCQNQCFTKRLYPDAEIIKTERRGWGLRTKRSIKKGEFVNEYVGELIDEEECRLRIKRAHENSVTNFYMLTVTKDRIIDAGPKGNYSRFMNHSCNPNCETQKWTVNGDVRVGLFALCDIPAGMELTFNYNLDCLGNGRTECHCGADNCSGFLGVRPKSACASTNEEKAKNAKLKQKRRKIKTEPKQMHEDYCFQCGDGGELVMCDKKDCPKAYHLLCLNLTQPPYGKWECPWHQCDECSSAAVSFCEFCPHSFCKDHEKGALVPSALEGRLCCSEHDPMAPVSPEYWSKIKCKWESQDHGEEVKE
# Excerpt: as §1
# [7] = molecular target: PRDM9 (Homo sapiens, UniProt Q9NQV7); test: HMT selectivity panel; settings: PRDM9, 50 µM compound
# PRDM9, sequence (Q9NQV7 whole entry, species assumed): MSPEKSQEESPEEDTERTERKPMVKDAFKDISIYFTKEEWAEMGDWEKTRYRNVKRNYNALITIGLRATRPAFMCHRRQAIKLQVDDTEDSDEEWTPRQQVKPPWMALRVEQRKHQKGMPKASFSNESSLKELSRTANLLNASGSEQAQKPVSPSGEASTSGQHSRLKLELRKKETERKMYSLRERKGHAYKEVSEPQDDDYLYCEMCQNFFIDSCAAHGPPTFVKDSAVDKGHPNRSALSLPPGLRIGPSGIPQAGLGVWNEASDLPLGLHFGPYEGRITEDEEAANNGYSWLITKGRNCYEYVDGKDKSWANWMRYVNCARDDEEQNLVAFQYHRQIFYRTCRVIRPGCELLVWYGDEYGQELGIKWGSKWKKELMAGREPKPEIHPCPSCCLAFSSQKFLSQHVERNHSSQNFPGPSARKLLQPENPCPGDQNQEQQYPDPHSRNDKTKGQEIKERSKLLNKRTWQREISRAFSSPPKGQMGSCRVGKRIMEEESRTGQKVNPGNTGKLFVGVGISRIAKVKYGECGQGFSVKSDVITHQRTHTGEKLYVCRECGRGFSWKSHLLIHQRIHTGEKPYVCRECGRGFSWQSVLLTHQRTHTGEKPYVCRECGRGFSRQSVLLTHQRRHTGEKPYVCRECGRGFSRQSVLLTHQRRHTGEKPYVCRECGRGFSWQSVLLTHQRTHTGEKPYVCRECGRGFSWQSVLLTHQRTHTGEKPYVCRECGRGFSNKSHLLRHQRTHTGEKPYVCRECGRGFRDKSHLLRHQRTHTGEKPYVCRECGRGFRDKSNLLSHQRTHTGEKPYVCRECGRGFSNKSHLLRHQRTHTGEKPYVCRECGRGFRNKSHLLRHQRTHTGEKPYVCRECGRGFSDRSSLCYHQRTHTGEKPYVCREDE
# Excerpt: as §1
# [8] = Body weight during treatment in the MV4;11 model
# Description: Briefly, the 8- to 10-week old female NSG mice (Jackson Laboratory) were intravenously injected with 5 × 10^6 luciferase-expressing MV4;11 cells (received from Dr. Thomas Look, Dana Farber Cancer Institute). […] For imaging, mice were kept anesthetized with isoflurane, and 50 mg/kg luciferin (E1603, Promega) was administered by intraperitoneal injection. Photonic emission was imaged using the in Vivo Imaging System BLI (IVIS, 200) with total imaging time of 10 s for each mouse.
# Measurements are reference to the values obtained at the first day of treatment, which were set as
# [9] = molecular target: SUV39H2 (Homo sapiens, UniProt Q9H5I1); test: HMT selectivity panel; settings: SUV39H2, 50 µM compound
# SUV39H2, sequence (Q9H5I1 whole entry, species assumed): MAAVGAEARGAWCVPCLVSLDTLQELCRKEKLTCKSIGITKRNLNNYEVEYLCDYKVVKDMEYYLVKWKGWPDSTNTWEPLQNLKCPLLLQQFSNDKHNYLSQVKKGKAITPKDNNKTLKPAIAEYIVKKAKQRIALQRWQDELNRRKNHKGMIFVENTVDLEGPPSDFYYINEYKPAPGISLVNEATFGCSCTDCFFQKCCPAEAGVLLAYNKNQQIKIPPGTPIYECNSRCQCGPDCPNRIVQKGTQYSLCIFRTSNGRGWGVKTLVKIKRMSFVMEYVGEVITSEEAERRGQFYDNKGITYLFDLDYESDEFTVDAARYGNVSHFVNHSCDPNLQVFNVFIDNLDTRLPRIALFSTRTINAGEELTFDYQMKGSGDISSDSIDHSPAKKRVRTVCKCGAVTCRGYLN
# Excerpt: Assay conditions for selectivity experiments with a panel of histone
# as §1
# [10] = PK studies in mice
# Description: The LC-MS/MS method consisted of a Shimadzu UFLC 20 A system and chromatographic separation of test compound was achieved using Waters XBridge C18 column (5 cm × 2.1 mm, 3.5 µm). An AB Sciex QTrap 5500 mass spectrometer equipped with an electrospray ionization source (ABI-Sciex, Toronto, Canada) in the positive-ion multiple reaction monitoring (MRM) mode was used for detection. All pharmacokinetic parameters were calculated by noncompartmental methods using WinNonlin® version 3.2 (Pharsight Corporation, Mountain View, CA, USA). Parameters are presented as a mean ± standard deviation (SD).
# CL (clearance), AUC (area under the curve),
# Cmax (maximum concentration achieved), Tmax (time at which maximum concentration was
# achieved), were calculated by noncompartmental methods using WinNonlin® software version
# [11] = molecular target: MLL1 (Homo sapiens, UniProt Q03164); test: HMT selectivity panel; settings: MLL1, 50 µM compound
# Excerpt: as §1
# [12] = molecular target: PRMT6 (Homo sapiens, UniProt Q96LA8); test: HMT selectivity panel; settings: PRMT6, 50 µM compound
# PRMT6, sequence (Q96LA8 whole entry, species assumed, the tested form may be a part): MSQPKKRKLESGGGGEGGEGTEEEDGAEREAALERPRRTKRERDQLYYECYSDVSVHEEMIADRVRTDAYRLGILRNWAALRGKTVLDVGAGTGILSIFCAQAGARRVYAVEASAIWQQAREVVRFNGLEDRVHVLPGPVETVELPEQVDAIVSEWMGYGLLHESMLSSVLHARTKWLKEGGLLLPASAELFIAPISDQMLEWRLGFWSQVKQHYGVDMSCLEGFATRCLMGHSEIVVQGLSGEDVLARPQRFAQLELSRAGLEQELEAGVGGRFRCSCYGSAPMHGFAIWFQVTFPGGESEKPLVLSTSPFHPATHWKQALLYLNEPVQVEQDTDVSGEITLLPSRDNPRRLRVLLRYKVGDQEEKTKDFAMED
# Excerpt: as §1
# [13] = molecular target: ASH1L (amino acids 2046–2330) (Homo sapiens, UniProt Q9NR48); test: Histone methyltransferase (HMT) assay
# Description: The mixtures of ASH1L and compounds were incubated at room temperature for 1 h. […] The reaction was continued for 1 h at room temperature, then quenched by addition of 10% Trichloroacetic acid (TCA) and then transferred to 96-well filter plates (Millipore sigma, MSFBN6B), washed twice with 10% TCA and then once with 200-proof ethanol. After extensive drying, 70 µL of Microscint-O scintillant (PerkinElmer) was added and counts per minute (CPM) were measured using a MicroBeta microplate counter (PerkinElmer). Titration curves were plotted using Prism (GraphPad Prism 8.0.0.) and IC50 values were calculated.
# [14] = female, CD-1, mouse, plasma, other: i.v. and i.p.
smiles,measurement,setting,value
CN1CC(C(=O)NCc2ccc3c(-c4cccc(C(N)=S)c4)cn(C4CCN(S(=O)(=O)C(F)(F)F)CC4)c3c2)C1 [AS-99],activity at 50 µM,[1],101%
same,% activity,[1]; 50 µM,119.954%
same,reduction in the bioluminescence signal versus vehicle,"[2]; 30 mg/kg, i.p., q.d., 14 days",65%
same,average radiance,[2]; day 6 after transplantation (start of treatment),6110 p/s/cm2/sr and 4700 p/s/cm2/sr and 4630 p/s/cm2/sr and 3760 p/s/cm2/sr and 10800 p/s/cm2/sr and 52500 p/s/cm2/sr and 8750 p/s/cm2/sr
same,average radiance,[2]; day 13 after transplantation,199000 p/s/cm2/sr and 275000 p/s/cm2/sr and 78900 p/s/cm2/sr and 62500 p/s/cm2/sr and 231000 p/s/cm2/sr and 5680 p/s/cm2/sr and 144000 p/s/cm2/sr
same,average radiance,[2]; day 19 after transplantation (last day of treatment),1090000 p/s/cm2/sr (2×) and 1280000 p/s/cm2/sr and 524000 p/s/cm2/sr and 386000 p/s/cm2/sr and 8110 p/s/cm2/sr and 9660 p/s/cm2/sr
same,apoptosis in K562 cells,[3],not in the K562 cells
same,K562 % Annexin V/PI+ cells,[3]; 2 uM,10.85% and 7.41% and 3.78%
same,K562 % Annexin V/PI+ cells,[3]; 4 uM,7.07% and 5.34% and 5.33%
same,K562 % Annexin V/PI+ cells,[3]; 6 uM,4.92% and 4.78% and 6.63%
same,K562 % Annexin V/PI+ cells,[3]; 8 uM,5.64% and 10.26% and 7.32%
same,effect on colony number or morphology,[4],no effect on colony number or morphology
same,colony counts,[4]; 3 uM,70 and 68
same,colony counts,[4]; 6 uM,86 and 64
same,inhibition in a panel of representative kinases,[5],does not inhibit strongly; also recorded: did not show substantial inhibition
same,activity at 50 µM,[6],145%
same,% activity,[6]; 50 µM,128.837%
same,activity at 50 µM,[7],96.8%
same,% activity,[7]; 50 µM,100.979%
same,toxicity during the treatment period,"[8]; 30 mg/kg, i.p., q.d., 14 days",No substantial toxicity
same,body weight reduction,"[8]; after 7 days of treatment, 30 mg/kg, i.p., q.d.",~ 10%
same,normalized body weight change,[8]; days of treatment 1,100
same,normalized body weight change,[8]; days of treatment 2,95 and 98 and 97 and 96
same,normalized body weight change,[8]; days of treatment 3,94 and 98 and 96 and 99 and 95 and 102
same,normalized body weight change,[8]; days of treatment 4,95 and 96 and 97 and 100
same,normalized body weight change,[8]; days of treatment 5,95 and 89 and 93 and 87 and 100
same,normalized body weight change,[8]; days of treatment 6,90 and 100 and 94 and 87 and 93
same,normalized body weight change,[8]; days of treatment 7,85 and 89 and 87 and 94
same,normalized body weight change,[8]; days of treatment 9,91 and 93 and 95 and 87 and 90
same,normalized body weight change,[8]; days of treatment 10,91 and 98 and 96 and 89 and 95 and 87
same,normalized body weight change,[8]; days of treatment 11,91 and 96 and 94 and 97 and 100 and 99 and 89
same,normalized body weight change,[8]; days of treatment 12,95 and 103 and 87 and 88
same,normalized body weight change,[8]; days of treatment 13,89 and 95 and 94 and 96 and 105 and 90
same,activity at 50 µM,[9],88.7%
same,% activity,[9]; 50 µM,78.6146%
same,AUC,"[10]; female, CD-1, mouse, plasma, ip, 30 mg/kg",10700 ng·h/mL
same,concentration at 0.167 h,"[10]; female, CD-1, mouse, plasma, ip, 30 mg/kg, blood plasma level of AS-99, i.p., time 0.167 h",9800 nM
same,concentration at 0.25 h,"[10]; female, CD-1, mouse, plasma, ip, 30 mg/kg, blood plasma level of AS-99, i.p., time 0.25 h",9110 nM
same,concentration at 0.5 h,"[10]; female, CD-1, mouse, plasma, ip, 30 mg/kg, blood plasma level of AS-99, i.p., time 0.5 h",6580 nM
same,concentration at 1 h,"[10]; female, CD-1, mouse, plasma, ip, 30 mg/kg, blood plasma level of AS-99, i.p., time 1 h",6110 nM
same,concentration at 2 h,"[10]; female, CD-1, mouse, plasma, ip, 30 mg/kg, blood plasma level of AS-99, i.p., time 2 h",2760 nM
same,concentration at 4 h,"[10]; female, CD-1, mouse, plasma, ip, 30 mg/kg, blood plasma level of AS-99, i.p., time 4 h",840 nM
same,concentration at 7 h,"[10]; female, CD-1, mouse, plasma, ip, 30 mg/kg, blood plasma level of AS-99, i.p., time 7 h",300 nM
same,concentration at 16 h,"[10]; female, CD-1, mouse, plasma, ip, 30 mg/kg, blood plasma level of AS-99, i.p., time 16 h",84 nM
same,concentration at 24 h,"[10]; female, CD-1, mouse, plasma, ip, 30 mg/kg, blood plasma level of AS-99, i.p., time 24 h",33.7 nM
same,AUC,"[10]; female, CD-1, mouse, plasma, iv, 15 mg/kg",9700 ng·h/mL
same,concentration at 0.083 h,"[10]; female, CD-1, mouse, plasma, iv, 15 mg/kg, blood plasma level of AS-99, i.v., time 0.083 h",25800 nM
same,concentration at 0.167 h,"[10]; female, CD-1, mouse, plasma, iv, 15 mg/kg, blood plasma level of AS-99, i.v., time 0.167 h",10200 nM
same,concentration at 0.25 h,"[10]; female, CD-1, mouse, plasma, iv, 15 mg/kg, blood plasma level of AS-99, i.v., time 0.25 h",6620 nM
same,concentration at 0.5 h,"[10]; female, CD-1, mouse, plasma, iv, 15 mg/kg, blood plasma level of AS-99, i.v., time 0.5 h",5200 nM
same,concentration at 1 h,"[10]; female, CD-1, mouse, plasma, iv, 15 mg/kg, blood plasma level of AS-99, i.v., time 1 h",1780 nM
same,concentration at 2 h,"[10]; female, CD-1, mouse, plasma, iv, 15 mg/kg, blood plasma level of AS-99, i.v., time 2 h",854 nM
same,concentration at 4 h,"[10]; female, CD-1, mouse, plasma, iv, 15 mg/kg, blood plasma level of AS-99, i.v., time 4 h",268 nM
same,concentration at 7 h,"[10]; female, CD-1, mouse, plasma, iv, 15 mg/kg, blood plasma level of AS-99, i.v., time 7 h",126 nM
same,concentration at 16 h,"[10]; female, CD-1, mouse, plasma, iv, 15 mg/kg, blood plasma level of AS-99, i.v., time 16 h",24.7 nM
same,concentration at 24 h,"[10]; female, CD-1, mouse, plasma, iv, 15 mg/kg, blood plasma level of AS-99, i.v., time 24 h",15.1 nM
same,Cmax,[10]; [14],> 10000 nM
same,half-life,[10]; [14],5 to 6 h
same,blood plasma level of AS-99,"[10]; i.p., time 0.167 h",8805 nM and 7458 nM
same,blood plasma level of AS-99,"[10]; i.p., time 0.25 h",6902 nM and 8721 nM
same,blood plasma level of AS-99,"[10]; i.p., time 0.5 h",6683.5 nM and 5152 nM
same,blood plasma level of AS-99,"[10]; i.p., time 1 h",5269 nM and 5185 nM
same,blood plasma level of AS-99,"[10]; i.p., time 2 h",3266 nM and 1801 nM
same,blood plasma level of AS-99,"[10]; i.p., time 4 h",1054 nM and 710.4 nM
same,blood plasma level of AS-99,"[10]; i.p., time 7 h",351.9 nM and 247.5 nM
same,blood plasma level of AS-99,"[10]; i.p., time 16 h",71.89 nM and 86.7 nM
same,blood plasma level of AS-99,"[10]; i.p., time 24 h",43.77 nM and 41.41 nM
same,blood plasma level of AS-99,"[10]; i.v., time 0.083 h",37878.8 nM
same,blood plasma level of AS-99,"[10]; i.v., time 0.167 h",7643.1 nM
same,blood plasma level of AS-99,"[10]; i.v., time 0.25 h",5774 nM
same,blood plasma level of AS-99,"[10]; i.v., time 0.5 h",4798 nM
same,blood plasma level of AS-99,"[10]; i.v., time 1 h",2559 nM
same,blood plasma level of AS-99,"[10]; i.v., time 2 h",611.1 nM
same,blood plasma level of AS-99,"[10]; i.v., time 4 h",217.2 nM
same,blood plasma level of AS-99,"[10]; i.v., time 7 h",94.11 nM
same,blood plasma level of AS-99,"[10]; i.v., time 16 h",29.8 nM
same,blood plasma level of AS-99,"[10]; i.v., time 24 h",15.32 nM
same,activity at 50 µM,[11],50%
same,% activity,[11]; 50 µM,69.7738%
same,activity at 50 µM,[12],105%
same,% activity,[12]; 50 µM,107.332%
CN1CC(C(=O)NCc2ccc3c(-c4cccc(C(N)=O)c4)cn(C4CCN(S(=O)(=O)C(F)(F)F)CC4)c3c2)C1 [AS-nc],reduced inhibitory activity (thioamide of AS-99 replaced with amide),[13],~ 100 fold
same,IC50,"[13]; IC50, HMT assay with nucleosomes as substrate, mean ± s.d. from two independent experiments",72 µM
same,% Ash1L activity,[13]; Log[compound] (M) -3,8.534% and 3.267%
same,% Ash1L activity,[13]; Log[compound] (M) -3.47712,48.6163% and 37.7254%
same,% Ash1L activity,[13]; Log[compound] (M) -3.95424,56.4006% and 63.2923%
same,% Ash1L activity,[13]; Log[compound] (M) -4.43136,67.1309% and 48.4913%
same,% Ash1L activity,[13]; Log[compound] (M) -4.90849,72.7906% and 62.8102%
same,% Ash1L activity,[13]; Log[compound] (M) -5.38561,70.7731% and 79.0573%
same,% Ash1L activity,[13]; Log[compound] (M) -5.86273,90.948% and 119.086%
